In experiment [1] the test system is JCV laboratory strain MAD-1. The experiment is described as follows: JCV antiviral potency in Cos 7 cells. It is filed as cell-based, JC polyomavirus (JCV).
Experiment [2] has as its system untransduced Ba/F3 cells grown in the presence of IL-3. As to the kind of experiment: Ba/F3 proliferation, parental cells (Cell Titer Glo). To be noted: 48 hrs, with IL-3. Format: cell-based. The method, then: (§1) IL-3 was subsequently withdrawn from these populations.
(§2) Final concentrations of each compound were 10 μM, 1 μM, 100 nM, 10 nM, 1 nM, 0.1 nM, 0 nM (plus a blank-media only).
(In general: In ATP-based viability assays light output follows the ATP content of the culture.)

In experiment [3] the test system is Ba/F3 cells harboring BCR-ABL E255V. As to the kind of experiment: Ba/F3 proliferation, BCR-ABL E255V. It is filed as cell-based. Conditions: 48 hrs, IL-3 withdrawn. The method, then: as §1, §2
Experiment [4] relates to Ba/F3 cells harboring BCR-ABL T315I. The experiment is described as follows: Ba/F3 proliferation, BCR-ABL T315I. Format: cell-based. To be noted: 48 hrs, IL-3 withdrawn. The method, then:
as §1, §2

Experiment [5] has as its system Ba/F3 cells harboring BCR-ABL E255K. The experiment is described as follows: Ba/F3 proliferation, BCR-ABL E255K. Format: cell-based. Conditions: 48 hrs, IL-3 withdrawn.
The subject of experiment [6] is Ba/F3 cells harboring BCR-ABL F359V. The experiment is described as follows: Ba/F3 proliferation, BCR-ABL F359V. To be noted: 48 hrs, IL-3 withdrawn. It is filed as cell-based.
Experiment [7] has as its target c-Abl1 (Homo sapiens (Human), UniProt P00519). As to the kind of experiment: c-Abl1 IC50 (FAM-labeled peptide kinase assay). Format: biochemical.
Protocol: Measurement of c-Abl1, c-Abl2 and c-Kit IC50 Values
For the assay of enzyme inhibitions, 5 μl of each well from the intermediate plate is transferred to a 384-well plate in duplicates, 10. […] Then enzyme substrate is added as 10 μl of 2.5×FAM-labeled peptide+ATP solution to each well of the 384-well assay plate. The reaction is allowed to proceed at 28° C. and quenched with the addition of 25 μl of stop buffer. The release of fluorescent FAM is quantitated as Percent inhibition=(max−conversion)/(max−min)*100. ? “max” stands for DMSO control; “min” stands for low control. Data are fit in XLFit excel add-in version 4.3.1 to obtain IC50 values. Equation used is: Y=Bottom+(Top−Bottom)/(1+(IC50/X)^HillSlope)
Experiment [8] concerns Ba/F3 cells harboring BCR-ABL Y253H. The experiment is described as follows: Ba/F3 proliferation, BCR-ABL Y253H. It is filed as cell-based. Conditions: 48 hrs, IL-3 withdrawn. The method, then: as §1, §2
The subject of experiment [9] is BCR-ABL. To be noted: cited from earlier work.

This is an account of results in patent US10906896B2, “Compositions and methods for inhibiting kinases” (Inhibikase Therapeutics, Inc., priority 2015, dated 2021).

pIC50: −log10 of the molar value.

Sequence of c-Abl1 (P00519 whole entry): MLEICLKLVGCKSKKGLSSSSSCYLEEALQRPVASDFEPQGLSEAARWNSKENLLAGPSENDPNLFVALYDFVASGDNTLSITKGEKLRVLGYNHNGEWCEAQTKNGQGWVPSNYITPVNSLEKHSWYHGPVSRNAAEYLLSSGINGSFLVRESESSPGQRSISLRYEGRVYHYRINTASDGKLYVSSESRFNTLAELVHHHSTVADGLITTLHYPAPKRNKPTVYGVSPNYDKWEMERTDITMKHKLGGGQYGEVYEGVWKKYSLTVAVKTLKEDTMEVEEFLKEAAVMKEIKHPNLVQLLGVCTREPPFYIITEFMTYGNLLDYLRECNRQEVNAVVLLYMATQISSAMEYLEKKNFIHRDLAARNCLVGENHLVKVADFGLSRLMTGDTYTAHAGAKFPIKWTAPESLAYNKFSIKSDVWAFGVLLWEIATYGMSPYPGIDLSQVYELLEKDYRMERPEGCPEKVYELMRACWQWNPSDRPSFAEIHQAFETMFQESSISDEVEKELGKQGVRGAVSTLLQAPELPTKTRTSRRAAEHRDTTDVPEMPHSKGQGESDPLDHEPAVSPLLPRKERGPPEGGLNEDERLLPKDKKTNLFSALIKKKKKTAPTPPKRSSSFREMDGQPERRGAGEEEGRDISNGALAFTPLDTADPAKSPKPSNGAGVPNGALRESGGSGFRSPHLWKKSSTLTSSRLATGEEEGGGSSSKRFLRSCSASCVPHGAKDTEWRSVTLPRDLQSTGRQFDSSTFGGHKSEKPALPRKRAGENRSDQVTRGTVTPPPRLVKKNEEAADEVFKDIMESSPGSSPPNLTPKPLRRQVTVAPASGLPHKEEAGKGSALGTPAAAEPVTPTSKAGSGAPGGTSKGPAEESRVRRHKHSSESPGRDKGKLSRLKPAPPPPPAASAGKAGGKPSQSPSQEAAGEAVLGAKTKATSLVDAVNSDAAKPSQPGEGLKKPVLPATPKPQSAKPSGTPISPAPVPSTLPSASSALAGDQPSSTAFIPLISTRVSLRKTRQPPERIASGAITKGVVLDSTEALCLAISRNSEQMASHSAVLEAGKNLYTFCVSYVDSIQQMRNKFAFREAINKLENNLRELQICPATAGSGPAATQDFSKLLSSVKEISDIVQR

In the case of `Cc1ccc(NC(=O)c2ccc(CN3CCN(C)CC3)cc2)cc1Nc1nccc(-c2cncc(C3=NN=C(C(=O)Nc4cn[nH]c4)C3)c2)n1` [Compound 118], the “antiviral activity against JCV” value in experiment [1] is “little antiviral activity”.

As usually defined, the IC50 is the concentration needed to halve the response being measured. For the molecule `Cc1ccc(-c2cncc(-c3ccnc(Nc4cc(NC(=O)c5ccc(CN6CCN(C)CC6)cc5)ccc4C)n3)c2)nc1` [Compound 820], the IC50 amounted to 2480 nM in experiment [2]; 2670 nM in experiment [3]; 2300 nM in [4]; 204 nM in experiment [5]; 260 nM in experiment [6].

As to `Cc1ccc(NC(=O)c2ccc(CN3CCN(C)CC3)cc2)cc1Nc1nccc(-c2cncc(-c3ccn(C)n3)c2)n1` [Compound 832], the IC50 in experiment [2] worked out at 2480 nM; in experiment [3], 661 nM; in experiment [4] it was 2590 nM; in experiment [5], 90.9 nM; in experiment [6], 46.7 nM.

The pIC50 is −log10 of the IC50, conventionally taken in molar units. The low end stands for a high IC50, the high end for a low IC50. For `Cc1ccc(NC(=O)c2ccc(CN3CCN(C)CC3)cc2)cc1Nc1nccc(-c2cncc(-c3snnc3C)c2)n1` [Compound 8240], the pIC50 in experiment [7] is < 6.00.

For `Cc1cc(NC(=O)C2=NN=C(c3cncc(-c4ccnc(Nc5cc(NC(=O)c6ccc(CN7CCN(C)CC7)cc6)ccc5C)n4)c3)C2)ccn1` [Compound 103], the IC50 amounted to 2920 nM in [2]; 1200 nM in [3]; 2590 nM in experiment [8]; 2910 nM in experiment [4]; 196 nM in [5]; 135 nM in [6].

Turning to `Cc1cc(-c2cncc(-c3ccnc(Nc4cc(NC(=O)c5ccc(CN6CCN(C)CC6)cc5)ccc4C)n3)c2)sn1` [Compound 8190], the IC50 was determined as 2240 nM in experiment [2]; 997 nM in [3]; 2680 nM in experiment [4]; 390 nM in experiment [5]; 236 nM in experiment [6].

Take `Cc1cc(NC(=O)C2=NN=C(c3cncc(-c4ccnc(Nc5cc(NC(=O)c6ccc(CN7CCN(C)CC7)cc6)ccc5C)n4)c3)C2)[nH]n1` [Compound 113]: the IC50 was 2060 nM in [2]; 739 nM in experiment [3]; 1430 nM in [8]; 2120 nM in [4]; 46.9 nM in experiment [5]; 161 nM in experiment [6].

For the molecule `Cc1csc(-c2cncc(-c3ccnc(Nc4cc(NC(=O)c5ccc(CN6CCN(C)CC6)cc5)ccc4C)n3)c2)n1` [Compound 8290], the IC50 in [2] stood at 2580 nM; in experiment [3], 1440 nM; in experiment [4], 2480 nM; in [5], 80.4 nM; in experiment [6], 375 nM.

In the case of `Cc1ccc(NC(=O)c2ccc(CN3CCN(C)CC3)cc2)cc1Nc1nccc(-c2cncc(-c3nccs3)c2)n1` [Compound 8270], the IC50 in [2] amounted to 2520 nM; in experiment [3] it was 1030 nM; in experiment [4], 2790 nM; in experiment [5] it was 45.9 nM; in [6] it was 203 nM.

As to `Cc1cnc(-c2cncc(-c3ccnc(Nc4cc(NC(=O)c5ccc(CN6CCN(C)CC6)cc5)ccc4C)n3)c2)s1` [Compound 8280], the IC50 in experiment [2] was found to be 2610 nM; in experiment [3], 2390 nM; in experiment [4], 2770 nM; in [5], 234 nM; in experiment [6] it was 251 nM.

As to `Cc1cn(-c2cc(NC(=O)c3ccc(C)c(Nc4nccc(-c5cccnc5)n4)c3)cc(C(F)(F)F)c2)cn1` [Tasigna, nilotinib], in [9], the “potency as an inhibitor of BCR-ABL relative to Gleevec” value is recorded as ≤ 20 ×.
